From US20030157186A1, “Method for maintaining or improving the synthesis of mucins” (priority 2003, published 2003)

Tested on: HT29-MTX cells
Experiment: Fractional synthesis rate of mucoproteins in vitro (3H-threonine incorporation)
Format: cell-based, human
Conditions: for mucoprotein FSR: day 7 to 21, mean±SEM, n=6
Procedure: The effect of threonine supplementation on the mucin synthesis rate was analyzed in vitro in HT29-MTX cells (human colonic carcinoma cells). HT29-MIX cells were grown in normal Dulbecco's modified minimum essential medium (DMEM) supplemented with 10% (v/v) heat-inactivated fetal bovine serum (Life Technologies) and containing 25 mM glucose, 1% non-essential amino acids (Life Technologies), 2 mM glutamine (AJINOMOTO CO), 85 mg/L penicillin-streptomycin, 50 mg/L gentamicin, and 1.5 mg/L Amphotericin B (Life Technologies). Cells were cultured at 37° C. in an atmosphere containing 10% CO2:90% air. The culture medium was changed daily. Experiments were carried out in T75 cm^2 culture flasks between passages 10 to 20. Studies were performed in the late post-confluent period (21 days after seeding), when all cells display a mucin-secreting phenotype. For the experiment, cells were grown in the normal DMEM until confluency (7 days after seeding). Then from day 7 to day 21 after seeding, several concentrations of threonine in the DMEM were tested, namely, 0.2 mM, 0.4 mM, 0.8 mM and 1.6 mM. At day 20, L-(3-^3H) threonine (30 microCi/Flask) was added to a fresh 10 mL culture medium. The incorporation of the radioactive tracer to newly synthesized mucoproteins was determined for the following 24 hour period. After 24 hours of metabolic labeling, the culture medium of cells was removed. […] An aliquot of each homogenate was removed for the measurement of the specific radioactivity of the intracellular free threonine considered as the precursor pool. […] Purified mucins were hydrolyzed with 6M HCl (24 h at 100° C.), and their amino acid composition was determined by HPLC. […] The fractional synthesis rate (FSR) of mucoproteins was calculated and expressed in percent/day (%/d): (FSR=(Specific radioactivity of mucoprotein bound threonine/Specific radioactivity of intracellular free threonine)*100). […] The mucoprotein FSR was determined for each of the varying concentrations of threonine (mM) in the culture medium of HT29-MTX cells as further shown in FIG. 1.

With `C[C@@H](O)[C@H](N)C(=O)O` [threonine] as the compound, how does the “mucoprotein FSR” value (0.2 mM threonine in culture medium) read?
Its value is 26.4±1.4%.

And the “mucoprotein FSR” value (0.8 mM threonine in culture medium)?
The value was 37.3±1.4%.

What about the “threonine concentration at which mucoprotein FSR reached a plateau” value (0.2 to 1.6 mM tested) of the same compound?
The value was “about 0.8 mM”.
